Results taken from ChEMBL document CHEMBL5036350, “Binding site comparison for coumarin inhibitors and amine/amino acid activators of human carbonic anhydrases” (Eur J Med Chem, 2021).

Assays:
Conditions in all cases: filed as activator
[1] = molecular target: Carbonic anhydrase 13 (Homo sapiens) (UniProt Q8N1Q1); experiment: Activation of human carbonic anhydrase 13 by stopped flow assay
[2] = molecular target: Carbonic anhydrase 2 (Homo sapiens) (UniProt P00918); experiment: Activation of human carbonic anhydrase 2 by stopped flow assay
[3] = molecular target: Carbonic anhydrase 7 (Homo sapiens) (UniProt P43166); experiment: Activation of human carbonic anhydrase 7 by stopped flow assay
Chain of Carbonic anhydrase 7 (Homo sapiens) (P43166 whole entry): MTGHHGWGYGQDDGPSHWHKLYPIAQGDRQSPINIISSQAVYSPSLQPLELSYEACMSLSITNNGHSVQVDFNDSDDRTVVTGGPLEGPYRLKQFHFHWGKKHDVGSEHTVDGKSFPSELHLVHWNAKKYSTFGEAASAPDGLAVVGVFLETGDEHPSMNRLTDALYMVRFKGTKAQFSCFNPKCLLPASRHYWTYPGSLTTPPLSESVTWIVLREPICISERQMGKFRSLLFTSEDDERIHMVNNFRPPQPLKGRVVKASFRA

[4] = molecular target: Carbonic anhydrase 4 (Homo sapiens) (UniProt P22748); experiment: Activation of human carbonic anhydrase 4 by stopped flow assay
Chain of Carbonic anhydrase 4 (Homo sapiens) (P22748 whole entry): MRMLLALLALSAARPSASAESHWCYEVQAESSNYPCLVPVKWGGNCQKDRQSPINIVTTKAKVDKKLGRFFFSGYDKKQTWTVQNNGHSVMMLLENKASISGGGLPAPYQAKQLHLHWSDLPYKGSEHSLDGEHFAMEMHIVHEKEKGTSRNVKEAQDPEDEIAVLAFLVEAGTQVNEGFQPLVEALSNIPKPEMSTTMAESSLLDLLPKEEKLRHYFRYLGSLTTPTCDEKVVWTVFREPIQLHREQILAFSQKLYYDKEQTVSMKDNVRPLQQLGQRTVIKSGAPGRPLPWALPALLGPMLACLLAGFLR

[5] = molecular target: Carbonic anhydrase 14 (Homo sapiens) (UniProt Q9ULX7); experiment: Activation of human carbonic anhydrase 14 by stopped flow CO2 hydrase assay
Chain of Carbonic anhydrase 14 (Homo sapiens) (Q9ULX7 whole entry): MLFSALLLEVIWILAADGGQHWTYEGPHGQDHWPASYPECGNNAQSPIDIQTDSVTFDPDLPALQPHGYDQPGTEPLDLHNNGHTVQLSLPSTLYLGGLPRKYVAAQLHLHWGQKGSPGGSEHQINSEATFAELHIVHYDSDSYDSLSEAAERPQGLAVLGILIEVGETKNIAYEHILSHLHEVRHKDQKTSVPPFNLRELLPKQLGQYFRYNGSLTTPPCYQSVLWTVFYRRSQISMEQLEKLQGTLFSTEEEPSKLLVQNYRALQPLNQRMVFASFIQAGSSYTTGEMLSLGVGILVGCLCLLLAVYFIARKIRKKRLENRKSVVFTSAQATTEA

[6] = molecular target: Carbonic anhydrase 5A, mitochondrial (Homo sapiens) (UniProt P35218); experiment: Activation of human carbonic anhydrase 5A by stopped flow assay
Chain of Carbonic anhydrase 5A, mitochondrial (Homo sapiens) (P35218 whole entry): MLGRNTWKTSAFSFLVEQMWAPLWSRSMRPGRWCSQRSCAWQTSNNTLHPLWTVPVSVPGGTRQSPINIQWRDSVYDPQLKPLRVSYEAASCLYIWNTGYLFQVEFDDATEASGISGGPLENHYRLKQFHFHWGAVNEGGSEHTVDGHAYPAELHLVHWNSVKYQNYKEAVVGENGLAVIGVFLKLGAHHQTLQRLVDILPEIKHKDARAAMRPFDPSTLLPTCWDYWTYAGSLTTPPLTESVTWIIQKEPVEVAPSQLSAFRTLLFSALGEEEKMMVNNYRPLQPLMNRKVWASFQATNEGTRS

Chain of Carbonic anhydrase 13 (Homo sapiens) (Q8N1Q1 whole entry, looked up): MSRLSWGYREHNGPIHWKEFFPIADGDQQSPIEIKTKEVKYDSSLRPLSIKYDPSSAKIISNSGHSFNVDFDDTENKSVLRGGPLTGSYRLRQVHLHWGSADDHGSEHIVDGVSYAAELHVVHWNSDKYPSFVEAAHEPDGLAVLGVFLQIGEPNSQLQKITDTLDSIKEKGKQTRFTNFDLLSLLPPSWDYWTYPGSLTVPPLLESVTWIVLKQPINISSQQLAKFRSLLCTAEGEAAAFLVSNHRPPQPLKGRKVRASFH

`N[C@@H](Cc1c[nH]cn1)C(=O)O` showed a KA [1] of 0.13 µM.

Compound `N[C@H](Cc1c[nH]cn1)C(=O)O` has a KA [1] of 0.09 µM.

`NCCc1c[nH]cn1` gave a KA [2] of 12.5 µM and a KA [1] of 4.6 µM.

For `CNC[C@H](O)c1ccc(O)c(O)c1`, the KA [3] was 60 µM, the KA [4] was 45 µM and the KA [5] was 36 µM. For the same compound, the KA [6] was 63 µM.

For `N[C@H](Cc1c[nH]c2ccccc12)C(=O)O`, the KA [1] was 0.81 µM.
